The conditions of data set [1]: background; cited from earlier work.
A short description of another data set: in vivo. The settings on record: mouse, in vivo, iv. The method, then: (§1) Swiss Webster mice (Harlan Sprague Dawley Inc., Indianapolis, Ind.) weighing between 25 and 30 g were given doses ranging from 0.2 to 1 ml/mouse. Five animals were used for each dose. No anesthesia was used for injection. Following the injection, animals were monitored daily for 7 days. The percentage survival vs. dose curve was constructed to estimate LD50.

In a further data set the test system is Swiss Webster mice. The data set can be described thus: in vivo. The settings on record: male and female mice. How it is done: as §1
A further data set relates to liver. The data set can be described thus: Computed tomography of liver in normal rabbits. The format is in vivo, New Zealand white rabbits. The conditions noted are these: predicted from CT imaging data. The method, then:
New Zealand white rabbits (male, 3.0 to 3.5 kg) were anesthetized by an intramuscular injection of a solution containing xylazine (8.6 mg/ml), ketamine (42.9 mg/ml), and acepromazine (1.4 mg/ml) at a dose of 0.4 ml/kg for a long-lasting effect. Intravenous catheters (22-gauge) were placed in a marginal ear vein for the introduction of particle suspension. Rabbits were positioned supine in a GE model 9800 Quick scanner (Milwaukee, Wis.). The particulate contrast agent of proper volume (8% I, w/v in saline) was injected through the catheterized ear vein over a period of 10 to 15 minutes.
CT imaging of radiopaque particles (80 mg I/ml) was carried out at doses of 100, 200, and 270 mg I/kg body weight respectively. Three rabbits were used for each dose level. CT imaging was done with a scan speed of 1.0 seconds, 120 kV, 280 mAs, and a 25-cm field of view. Sequential, contiguous 3-mm-thick slices through the abdomen and 5-mm-thick-slices through the pelvis were obtained before contrast injection, immediately after injection and at various times (15 and 30 minutes, 1, 2, and 6 hours, and 1, 2, and 7 days after injection). The rabbits were killed with an overdose of pentobarbital sodium (50 mg/kg) administered via the catheterized ear vein.
Densitometric analysis of the liver, kidney, aorta, and bladder were performed. […]

Data set [2] can be described thus: Hydrolytic degradation of IX-C particles (HCl, NaOH, saline). The class given is physicochemical. The conditions noted are these: supernatants of all samples (HCl, NaOH, saline, plasma). The method, then:
(§2) Degradation of IX-C particles was investigated by incubating a suspension of the particles (25 mg) in the following solutions (each 1 ml) at 37° C.:0.1 N HCl, 0.1 N NaOH, saline, and rabbit plasma. The disappearance of the particles in the suspensions was noted by visual observations and the integrity of the particles was examined by scanning electron microscopy. To identify the degradation products, the residual solutions were subjected to analysis by HPLC. The HPLC system consisted of a RP-18 column, a Perkin-Elmer isocratic LC pump (Model 250), a PE Nelson 900 series interface, a Spectra-Physics UV/Vis detector (Model SP 8540) and a data station. The eluant (10% methanol in double distilled water) was run at 0.8 ml/min. with UV detection at 254 nm. Samples in HCl or NaOH were neutralized before injection. Plasma samples were first treated with PCA (0.4 N) and centrifuged to remove precipitate proteins. The supernatants were then injected for HPLC analysis.

Data set [3] can be described thus: Enzymatic degradation of IX-C particles in rabbit plasma. The format is in vitro ADME. The settings on record: plasma samples. How it is done: as §2
A short description of a further data set: Solubility of IX-C. The format is physicochemical.
Another data set deals with endothelial cells. The conditions noted are these: background; cited from earlier work.

The values that follow come from patent US5686061A, “Particulate contrast media derived from non-ionic water soluble contrast agents for CT enhancement of hepatic tumors” (priority 1994, dated 1997).

“Also recorded” adds a separate entry of the source. Read-outs that look alike come from different tables or passages of the source.

Turning to `CC(=O)N(CC(O)CO)c1c(I)c(C(=O)NCCO)c(I)c(C(=O)NCC(O)CO)c1I` (centres unmarked) [IOXILAN], in data set [1], the overall biological tolerance result is reported as “high overall biological tolerance”.
In the case of `CC(=O)N(CC1COC(=O)O1)c1c(I)c(C(=O)NCC2COC(=O)O2)c(I)c(C(=O)N2CCOC2=O)c1I` (centres unmarked) [IX-C, cyclic carbonate of IOXILAN], the median lethal dose (LD50) at 168 h turned out to be 1200 mg/kg in the data set “in vivo” (female Swiss Webster mice, tail vein, 7 days, read-out: LD50, females, as iodine); 2600 mg/kg in “in vivo” (female Swiss Webster mice, corresponding IX-C dose, read-out: LD50, females, as IX-C); 1400 mg/kg in “in vivo” (male Swiss Webster mice, tail vein, 7 days, read-out: LD50, males, as iodine); 3100 mg/kg in “in vivo” (male Swiss Webster mice, corresponding IX-C dose, read-out: LD50, males, as IX-C). Besides, the “LD50 compared with those reported for other particulate CM” value in the data set on Swiss Webster mice is given as “slightly higher than those reported for other particulate CM”. The predicted diagnostic dose in the data set on liver is given as 100 mg I/kg body weight. In addition, the “degradation products (HPLC)” value in data set [2] is “IOXILAN and carbon dioxide”. Besides, the “degradation product confirmed by FAB mass spectroscopy” value in data set [3] was “presence of IOXILAN was confirmed”. Besides, the lipid solubility entry in “Solubility of IX-C” was “lipid soluble”. Also, in the data set “Solubility of IX-C” (acetone), the solubility in acetone entry is “soluble in acetone”. Moreover, the “solubility in methylene chloride” value in the data set “Solubility of IX-C” (methylene chloride) is “limited solubility in methylene chloride; also recorded: slightly soluble in methylene chloride”. Also, the solubility in water entry in the data set “Solubility of IX-C” (water) is “insoluble in water”.
Turning to `O=C(CCCCC(=O)Nc1c(I)cc(I)c(C(=O)O)c1I)Nc1c(I)cc(I)c(C(=O)O)c1I` [Iodipamide, iodipamide], in the data set with endothelial cells, the “toxicity to endothelial cells” value is reported as “toxic to endothelial cells”.

In general, LD50 refers to the dose at which mortality reaches 50%.
